Assay results taken from patent US9079876B2, “Imidazole derivatives and preparation method and use thereof” (Beijing Orbiepharm Co., Ltd., priority 2010, dated 2015).

Test system: rat paw swelling induced by carrageenan
Test: Rat paw swelling induced by carrageenan (inflammation model)
Assay type: in vivo, Wistar rats
Protocol: In vivo test: observation of the effect of compound 1 on rat paw swelling induced by carrageenan (inflammation model evaluation)
50 rats were randomized into 5 groups, with 10 animals in each group.
The total volume prepared for each dose group was determined based on the actual weight of the animals. A corresponding volume of purified water was taken, and was added with a sample of the test compounds or of the positive control, to allow homogenous dispersion. Sodium carboxymethyl cellulose was subsequently added, to make a homogenous suspension without obvious agglomerates.
Methods: 50 Wistar rats ([…], 167-199 g) were used in the study, with 25 males and 25 females. They were randomized into 5 groups, i.e. model group, positive control group, compound 1: low, middle and high dose groups. […] 1 hour after intragastric administration, 0.1 ml 1% carrageenan was intradermally injected in the right hind plantar paw to induce inflammation. After induction of inflammation, paw plantar volume and paw thickness were measured every another hour, consecutively for six times. Paw swelling rate (%) and inhibition rate (%) were calculated.
Assay methods: volume of the rat right paw was determined using UGO Basile plethysmograph, and the liquid level was kept constant for in the same animal in each measurement; thickness of the right hind paw were measured at the depiction line in the central paw with a digital vernier caliper.
The group mean and standard deviation of paw swelling rate in each group of animals were calculated, and then the following statistical analysis was performed. The test level was 0.05, and both statistical significance and biological significance were considered in the result analysis.
Levene's Test was used for homogeneity of variance test. Single-factor analysis of variance (ANOVA) was used for statistical analysis, if no statistical significance (P>0.05) was found. Dunnett's test (parametric method) analysis was used for multiple comparison analysis, if ANOVA found statistical significance (P≦0.05).
If there was heterogeneity of variance (P≦0.05), then the Kruskal-Wallis test was used. If the test result of Kruskal-Wallis test was statistically significant (P<0.05), then Dunnett's test (non-parametric method) was used for multiple comparison analysis.

[1] = 7 mg/kg intragastric, 1 h after inflammation
[2] = 7 mg/kg intragastric, 2 h after inflammation
[3] = 7 mg/kg intragastric, 3 h after inflammation
[4] = 7 mg/kg intragastric, 4 h after inflammation
[5] = 7 mg/kg intragastric, 5 h after inflammation
[6] = 7 mg/kg intragastric, 6 h after inflammation
[7] = 10 mg/kg intragastric, 1 h after inflammation
[8] = 10 mg/kg intragastric, 2 h after inflammation
[9] = 10 mg/kg intragastric, 3 h after inflammation
[10] = 10 mg/kg intragastric, 4 h after inflammation
[11] = 10 mg/kg intragastric, 5 h after inflammation
[12] = 10 mg/kg intragastric, 6 h after inflammation
[13] = 14 mg/kg intragastric, 1 h after inflammation
[14] = 14 mg/kg intragastric, 2 h after inflammation
[15] = 14 mg/kg intragastric, 3 h after inflammation
[16] = 14 mg/kg intragastric, 4 h after inflammation
[17] = 14 mg/kg intragastric, 5 h after inflammation
[18] = 14 mg/kg intragastric, 6 h after inflammation

CS(=O)(=O)c1ccc(-n2cnc(Cl)c2-c2ccccc2)nc1 [Compound 1, 2-(4-chloro-5-phenyl-1H-imidazol-1-yl)-5-(methylsulfonyl)pyridine]
inhibition rate of plantar paw thickness swelling [1]: 27.44% | inhibition rate of plantar paw volume swelling [1]: 0.00% | plantar paw thickness swelling rate [1]: 7.97 ± 3.84% | plantar paw volume swelling rate [1]: 11.62 ± 4.73% | inhibition rate of plantar paw thickness swelling [2]: 63.92% | inhibition rate of plantar paw volume swelling [2]: 27.91% | plantar paw thickness swelling rate [2]: 5.72 ± 4.27 % | plantar paw volume swelling rate [2]: 12.62 ± 4.15% | inhibition rate of plantar paw thickness swelling [3]: 76.74% | inhibition rate of plantar paw volume swelling [3]: 43.96% | plantar paw thickness swelling rate [3]: 4.01 ± 3.33 % | plantar paw volume swelling rate [3]: 11.87 ± 3.62 % | inhibition rate of plantar paw thickness swelling [4]: 77.45% | inhibition rate of plantar paw volume swelling [4]: 58.90% | plantar paw thickness swelling rate [4]: 4.29 ± 4.47 % | plantar paw volume swelling rate [4]: 11.14 ± 3.73 % | inhibition rate of plantar paw thickness swelling [5]: 85.81% | inhibition rate of plantar paw volume swelling [5]: 55.32% | plantar paw thickness swelling rate [5]: 2.68 ± 3.82 % | plantar paw volume swelling rate [5]: 12.53 ± 5.03 % | inhibition rate of plantar paw thickness swelling [6]: 89.21% | inhibition rate of plantar paw volume swelling [6]: 57.59% | plantar paw thickness swelling rate [6]: 1.67 ± 4.28 % | plantar paw volume swelling rate [6]: 11.75 ± 4.71 % | inhibition rate of plantar paw thickness swelling [7]: 0.00% | inhibition rate of plantar paw volume swelling [7]: 0.00% | plantar paw thickness swelling rate [7]: 12.91 ± 4.89% | plantar paw volume swelling rate [7]: 12.48 ± 5.01% | inhibition rate of plantar paw thickness swelling [8]: 50.35% | inhibition rate of plantar paw volume swelling [8]: 6.86% | plantar paw thickness swelling rate [8]: 7.87 ± 3.91 % | plantar paw volume swelling rate [8]: 16.30 ± 5.55% | inhibition rate of plantar paw thickness swelling [9]: 60.54% | inhibition rate of plantar paw volume swelling [9]: 24.73% | plantar paw thickness swelling rate [9]: 6.80 ± 3.68 % | plantar paw volume swelling rate [9]: 15.95 ± 5.92% | inhibition rate of plantar paw thickness swelling [10]: 69.63% | inhibition rate of plantar paw volume swelling [10]: 45.15% | plantar paw thickness swelling rate [10]: 5.78 ± 3.69 % | plantar paw volume swelling rate [10]: 14.87 ± 5.07 % | inhibition rate of plantar paw thickness swelling [11]: 71.80% | inhibition rate of plantar paw volume swelling [11]: 44.78% | plantar paw thickness swelling rate [11]: 5.32 ± 3.99 % | plantar paw volume swelling rate [11]: 15.48 ± 5.58 % | inhibition rate of plantar paw thickness swelling [12]: 66.63% | inhibition rate of plantar paw volume swelling [12]: 43.68% | plantar paw thickness swelling rate [12]: 5.16 ± 3.94 % | plantar paw volume swelling rate [12]: 15.61 ± 7.62 % | inhibition rate of plantar paw thickness swelling [13]: 33.98% | inhibition rate of plantar paw volume swelling [13]: 0.77% | plantar paw thickness swelling rate [13]: 7.25 ± 4.10% | plantar paw volume swelling rate [13]: 10.82 ± 4.28% | inhibition rate of plantar paw thickness swelling [14]: 67.67% | inhibition rate of plantar paw volume swelling [14]: 30.59% | plantar paw thickness swelling rate [14]: 5.12 ± 3.74 % | plantar paw volume swelling rate [14]: 12.15 ± 5.20% | inhibition rate of plantar paw thickness swelling [15]: 77.77% | inhibition rate of plantar paw volume swelling [15]: 42.44% | plantar paw thickness swelling rate [15]: 3.83 ± 2.59 % | plantar paw volume swelling rate [15]: 12.20 ± 5.19 % | inhibition rate of plantar paw thickness swelling [16]: 79.53% | inhibition rate of plantar paw volume swelling [16]: 48.46% | plantar paw thickness swelling rate [16]: 3.90 ± 3.54 % | plantar paw volume swelling rate [16]: 13.97 ± 6.25 % | inhibition rate of plantar paw thickness swelling [17]: 86.47% | inhibition rate of plantar paw volume swelling [17]: 53.52% | plantar paw thickness swelling rate [17]: 2.55 ± 2.95 % | plantar paw volume swelling rate [17]: 13.03 ± 4.88 % | inhibition rate of plantar paw thickness swelling [18]: 84.04% | inhibition rate of plantar paw volume swelling [18]: 59.93% | plantar paw thickness swelling rate [18]: 2.47 ± 2.70 % | plantar paw volume swelling rate [18]: 11.10 ± 4.42 % | inhibition of the paw swelling rate (low, middle and high dose groups (7, 10, 14 mg/kg), 4 hours after inflammation): above 30%
